Laboratory results: patent US7655395B2, “Isolation and use of ryanodine receptors” (E.I. du Pont de Nemours and Company, priority 2002, dated 2010)

Key:
[1] = tested on: control cells without DNA / wild-type Sf9 cells; assay: Calcium response in control Sf9 cells (without DNA, lipid only, non-transfected, wild type); assay type: cell-based, Spodoptera frugiperda; details: Compound 5 3 μM
Description: (§1) Several drops of a suspension of recombinant Spodoptera frugiperda cell line, Sf9, transiently expressing insect ryanodine receptors were placed on a poly-L-lysine-coated coverslip and allowed to attach. Cells were then rinsed in physiological saline having the following composition (mM): NaCl 130; KCl 5.4; MgCl2 1.2; CaCl2 1.0; NaHCO3 4.2; NaH2P04 7.3; Glucose 10; Sucrose 63; MES 20; pH 6.3. Cells were then bathed in physiological saline containing the calcium sensitive fluoroprobe, Fura-2 AM (2 μM), and Pluronic F127 (0.002%) for 30 min. Cells were rinsed in standard physiological saline for at least 15 min prior to testing. Testing was conducted in standard physiological saline, as the cell lines are devoid of functional voltage-gated calcium channels.
Imaging studies were conducted using a Nikon Diaphot microscope with a 40× oil immersion objective (NA 1.3) Image acquisition and processing was performed using the MetaFluor™ imaging system from Universal Imaging Corporation (West Chester, Pa.) Calcium calibration was carried out using the Grynkiewicz equation with a dissociation constant (Kd) of 145 nM for Fura-2 (Grynkiewicz et al., 1985). Cell-attached coverslips were placed in a sealed chamber with physiological saline continuously perfused across the cells using a peristaltic pump. Test compounds solubilized in physiological saline were applied by switching the perfusate source.
(§2) For studies involving the stable recombinant Spodoptera frugiperda cell line, Sf9, (other cell lines could also be used such as Sf21, S2, etc) expressing an insect ryanodine receptor from Drosophila melanogaster, or Heliothis virescens (alternatively receptors from other species such as Myzus persicae, Peregrinus maidis, Aphis gossypii, etc) were grown in T75 (or other appropriate sized) flasks in supplemented Grace's insect medium. Cells were maintained in an incubator at 22° C. until testing. Cells were suspension-loaded with the calcium sensitive fluoroprobe, Fura-2 AM (1-2 μM) and Pluronic F127 (0.002%) in culture medium for 30 minutes under agitation. Cells were then centrifuged and the pellet resuspended in physiological saline having the following composition (mM): NaCl 130; KCl 5.4; MgCl2 1.2; CaCl2 1.0; NaHCO3 4.2; NaH2P04 7.3; Glucose 10; Sucrose 63; MES 20; pH 6.3 at approximately 150,000-200,000 cells per well (96-well plate). After a 30 minute equilibration period the cell plate was tested using a Molecular Devices' FlexStation™ system with dual wavelength excitation (340 and 380 nm) and fluorescence emission measured at 510 nm. Test and control samples were added using integrated fluidics and the intracellular calcium monitored over a 2 minute period.

[2] = target: T1, recombinant Drosophila melanogaster ryanodine receptors (expressed in Sf9 cells) (Drosophila melanogaster, UniProt Q24498); assay type: cell-based; details: receptor expressed in Sf9 cells
T1 construct: expressed in transfected cells
Procedure: The Spodoptera frugiperda cell line Sf9 used for transfection studies, was maintained in Sf-900 II SFM medium (Invitrogen Life Technologies™, Carlsbad, Calif.) in T-75 flasks incubated at 27° C. It is understood that those skilled in the art might choose alternative cell types such as the Spodoptera frugiperda cell line Sf21 or the Drosophila cell line S2. For the purpose of general handling and propagation, cells were suspended through scraping or agitation and a volume of cell suspension was added to each well of a poly-L-lysine coated 96-well, glass-bottom plate so as to provide 70-80% confluence. Cells were maintained in an incubator at 27° C. until testing.
SF900-II media was used to bring the final volume in the dish to 2 ml and the cells were incubated at 27 degrees C. for 21 h. Following the incubation the media was aspirated from the dish and replaced with 1 ml of SF900-II media pre-warmed to 27 degrees C.
The transient transfection was carried out following an InsectSelect BSD System manual (Invitrogen Life Technologies™, Carlsbad, Calif.). […] The transfection was accomplished by adding the transfection solution drop-wise to the dish and incubating 4 h at room temperature with gentle rocking. […]
as §1
Cell-attached coverslips were placed in a sealed chamber with physiological saline continuously perfused across the cells using a peristaltic pump. Test compounds solubilized in physiological saline were applied by switching the perfusate source.
as §2

[3] = tested on: recombinant Heliothis virescens ryanodine receptor (expressed in Sf9 cells); assay: Calcium release assay, Sf9 cells transiently or stably expressing Heliothis virescens ryanodine receptor (Fura-2); assay type: cell-based; details: Cpd 5 3 μM; Sf9 transiently expressing H. virescens ryanodine receptor, 72 hr post-transfection; FIG. 4
Procedure: SF9 cells were grown at 27 degrees C. in a Corning 125 ml polycarbonate Erlenmeyer flask to a density of 3.1 million cells per ml in SF900-II serum free media (Gibco catalog no. 10902-088, Invitrogen™, Carlsbad, Calif.). One million cells were transferred to one well of a Corning 6-well, flat bottom cell culture dish (Corning Inc., Acton, Mass., catalog no. 3516). SF900-II media was used to bring the final volume in the dish to 2 ml and the cells were incubated at 27 degrees C. for 21 h. Following the incubation the media was aspirated from the dish and replaced with 1 ml of SF900-II media pre-warmed to 27 degrees C.
In the case of the vectors containing the Cre recognition elements, the transfection solution was mixed in a 1.5 ml microfuge tube by combining 5 ug of pHE7 plasmid, 5 ug of pMLS104 Cre plasmid and 0.5 ug of lacZ reporter plasmid, 15 ug of cellfectin reagent (Invitrogen cat. #10362-010) and SF900-II serum free media (Gibco catalog #10902-088, Invitrogen™, Carlsbad, Calif.) in a total volume of 500 ul. The solution was incubated for 1 hour at room temperature just prior to the transfection.
The transfection was accomplished by adding the transfection solution drop-wise to the dish and incubating 4 h at room temperature with gentle rocking. After the 4 h incubation the media was replaced with 2 ml of SF900-II media pre-warmed to 27 degrees C. and the cells were incubated 3 days at 27 degrees C.
as §1, with “Testing was conducted in standard physiological saline, as the cell lines are devoid of functional voltage-gated calcium channels.” left out
For studies involving the stable recombinant Spodoptera frugiperda cell line, Sf9, (other cell lines could also be used such as Sf21, S2, etc) expressing an insect ryanodine receptor from Drosophila melanogaster, or Heliothis virescens (alternatively receptors from other species such as Myzus persicae, Peregrinus maidis, Aphis gossypii, etc) were grown in T75 (or other appropriate sized) flasks in supplemented Grace's insect medium. […] After a 30 minute equilibration period the cell plate was tested using a Molecular Devices' FlexStation™ system with dual wavelength excitation (340 and 380 nm) and fluorescence emission measured at 510 nm. […]

[4] = target: native cockroach ryanodine receptors (roach femoral muscle membranes) (Periplaneta americana, UniProt A0ABQ8T696); assay: Radioligand displacement ([3H]-GN analog Cpd 1) on roach femoral muscle membranes; assay type: binding; details: displacement of [3H]-Cpd 1, roach muscle membranes, 60 min at 32° C.; read-out: Displacement IC50 (nM) P. americana
Procedure: Binding to Roach Femoral Muscle Membranes:
Assays were carried out in triplicate.

Sequence of native cockroach ryanodine receptors (roach femoral muscle membranes) (A0ABQ8T696 entry or part of it): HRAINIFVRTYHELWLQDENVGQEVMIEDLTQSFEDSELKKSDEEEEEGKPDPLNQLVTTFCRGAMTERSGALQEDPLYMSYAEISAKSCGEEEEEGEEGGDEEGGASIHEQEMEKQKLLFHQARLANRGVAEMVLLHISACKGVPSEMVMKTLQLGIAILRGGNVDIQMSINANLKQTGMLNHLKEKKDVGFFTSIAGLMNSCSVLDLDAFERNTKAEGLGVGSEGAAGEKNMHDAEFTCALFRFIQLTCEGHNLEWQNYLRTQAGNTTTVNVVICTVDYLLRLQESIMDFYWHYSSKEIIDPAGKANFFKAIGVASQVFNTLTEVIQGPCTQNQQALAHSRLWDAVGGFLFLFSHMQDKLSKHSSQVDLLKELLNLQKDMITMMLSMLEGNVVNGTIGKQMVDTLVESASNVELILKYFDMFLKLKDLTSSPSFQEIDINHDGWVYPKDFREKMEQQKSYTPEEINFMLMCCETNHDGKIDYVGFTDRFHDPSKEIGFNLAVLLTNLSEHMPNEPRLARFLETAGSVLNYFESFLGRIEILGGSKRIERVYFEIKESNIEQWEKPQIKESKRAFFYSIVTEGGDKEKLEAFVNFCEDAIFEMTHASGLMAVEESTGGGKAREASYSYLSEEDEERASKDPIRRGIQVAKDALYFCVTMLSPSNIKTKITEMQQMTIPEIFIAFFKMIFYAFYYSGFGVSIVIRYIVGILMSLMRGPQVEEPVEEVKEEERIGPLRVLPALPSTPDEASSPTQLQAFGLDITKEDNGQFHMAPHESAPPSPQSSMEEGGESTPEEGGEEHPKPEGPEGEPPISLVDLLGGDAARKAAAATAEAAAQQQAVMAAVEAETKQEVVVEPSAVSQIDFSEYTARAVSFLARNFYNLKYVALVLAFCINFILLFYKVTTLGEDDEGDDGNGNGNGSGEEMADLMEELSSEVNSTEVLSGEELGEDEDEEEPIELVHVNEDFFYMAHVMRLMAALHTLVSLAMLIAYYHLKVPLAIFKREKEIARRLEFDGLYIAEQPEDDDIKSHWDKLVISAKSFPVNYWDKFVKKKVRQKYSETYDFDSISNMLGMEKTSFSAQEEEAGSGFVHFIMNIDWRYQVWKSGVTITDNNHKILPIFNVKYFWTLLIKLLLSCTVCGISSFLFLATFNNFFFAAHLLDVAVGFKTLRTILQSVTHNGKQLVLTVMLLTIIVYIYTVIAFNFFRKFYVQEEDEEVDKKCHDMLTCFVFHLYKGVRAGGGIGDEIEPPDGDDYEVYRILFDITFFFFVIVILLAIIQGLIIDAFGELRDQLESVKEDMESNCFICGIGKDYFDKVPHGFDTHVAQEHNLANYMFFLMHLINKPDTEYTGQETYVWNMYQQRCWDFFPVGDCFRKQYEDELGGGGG

Cc1cccc(C(=O)NC(C)C)c1NC(=O)c1cc(C(F)(F)F)nn1-c1ncccc1Cl [Cpd 5, 1-(3-Chloro-2-pyridinyl)-N-[2-methyl-6-[[(1-methylethyl)amino]carbonyl]phenyl]-3-(trifluoromethyl)-1H-pyrazole-5-carboxamide]
calcium response in control cells without DNA [1]: No significant calcium responses
Calcium Release Threshold (nM) D. melanogaster [2]: <300 nM
cytosolic [Ca2+] response [3]: increase in cytosolic [Ca^2+]
IC50 [4]: < 300 nM
